Test results: patent US20030202967A1, “Development and use of human pancreatic cell lines” (priority 1995, published 2003)

Assays:
[1] = tested on: epithelial cells in the human fetal pancreas (HFP); test: Mitogenic effect on human fetal pancreas epithelial cells; type: cell-based
Experimental: Sci., 05:753-64 (1993)}. Thus, in this example, the epithelial cells were initially grown in the extracellular matrix from 804G cells and HGF/SF in DMEM, supplemented with 10% fetal bovine serum, at 37° C. and 10% CO2. In this growth condition, the epithelial cells formed an islet-like cell cluster (ICC)-derived monolayer cultures having a doubling time of 48 hours. With such high percentage of mitotically active cells, the use of retroviral vectors which require mitotically active cells for successful integration of viral DNA become attractive. After retroviral infection, the epithelial cells were grown in DMEM, supplemented with 10% fetal bovine serum, at 37° C. and 10% CO2, without the extracellular matrix from 804G cells and HGF/SF. The use of HGF/SF offers an added advantage of selecting for epithelial over stromal cells. Stromal cells produce the growth factor HGF. […] Thus, HGF/SF treatment results in selective growth of the epithelial cells but also increases the mitotic index of the epithelial cells. The following method used the HGF/SF method.

[2] = tested on: CAT activity in LNSVoCL-infected 208F clones; type: cell-based, rat; conditions: some LNSVoCL-infected 208F clones also infected with pLISVHygL
Experimental: The ability of LNSVoCL and LoCRNLo to mediate inducible CAT expression was tested in rat 208F cells. The cells were infected by one of the two CAT-expressing vectors followed by the lac repressor-expressing vector pLISVHygL. Infected cells were selected in media containing G418 and hygromycin. CAT activity in LNSVoCL-infected 208F clones was determined in the presence or absence of IPTG.

TRM-1 cells = test: Insulin production from TRM-1 cells (radioimmunoassay); type: cell-based, human
Experimental: Levels of insulin and glucagon released into medium and the corresponding hormone content of acid ethanol extracts of sonicated cells were measured by radioimmunoassay (RIA) as described in Otonkoski, T., et al., J. Clin. Invest., 92:1459-1466 (1993).
Cells grown in this way were treated with nicotinamide for varying periods of time and assayed for insulin production using an extremely sensitive radioimmunoassay {Beattie, G., et al., J. Clin. Endocr. Metab., 78:1232-40 (1994)}.

HGF/SF: growth factor/scatter factor, ligand of the met receptor
Mitogenic effect [1]: strongly mitogenic

CC(C)SC1O[C@H](CO)[C@H](O)[C@H](O)[C@H]1O (stereo partly shown) [IPTG, isopropyl thiogalactopyranoside]
Increase in CAT activity in the presence of IPTG over its absence [2]: 80-100 fold

NC(=O)c1cccnc1 [Nic., nicotinamide]
Insulin production Day 0 (TRM-1 cells; TRM-1 suspension culture +10 mM Nic., Day 0): 0 μU insulin/48 hr/ml medium
Insulin production Day 5 (TRM-1 cells; TRM-1 suspension culture +10 mM Nic., Day 5): 0 μU insulin/48 hr/ml medium
Insulin production Day 7 (TRM-1 cells; TRM-1 suspension culture +10 mM Nic., Day 7): 0 μU insulin/48 hr/ml medium
Insulin production Day 11 (TRM-1 cells; TRM-1 suspension culture +10 mM Nic., Day 11): 2.8 μU insulin/48 hr/ml medium
Insulin production Day 13 (TRM-1 cells; TRM-1 suspension culture +10 mM Nic., Day 13): 4.0 μU insulin/48 hr/ml medium
Insulin production Day 17 (TRM-1 cells; TRM-1 suspension culture +10 mM Nic., Day 17): 5.6 μU insulin/48 hr/ml medium
Insulin expression in suspension cultures (TRM-1 cells; TRM-1 suspension cultures, after 11 days of exposure): small amounts of insulin

Cn1c(=O)c2[nH]cnc2n(C)c1=O [theophylline]
Stimulation of insulin production by treatment (TRM-1 cells; TRM-1 cells): not stimulated
